Data published in patent publication US20110124715A1, “Antiviral Oligonucleotides Having a Conserved G4 Core Sequence” (priority 1992, published 2011).
Values joined by “and” are separate entries in the source; they are usually repeats but may differ in a detail not shown here. Equal entries are not always repeated. Where two headings read alike, the source gives them in different places. Marks after values point to notes of the source that are not given here. Strand notation (5' to 3'): a small letter for the sugar, then the base; units joined by * are phosphorothioate-linked, units joined directly phosphodiester-linked; [ ] holds rarer units or linkages, { } end groups; capitals alone tell only the bases. [I] = hypoxanthine (inosine); d = 2'-deoxy (DNA)

What was measured:
[1] = system: HIV-1IIIB
[2] = system: human T-lymphoblastoid CEM cell line
[3] = Fraction tetramer by size exclusion chromatography; format: physicochemical; settings: Table 16; asterisk = more than one aggregate species
[4] = system: HIV-1
[5] = system: HIV-1; settings: for inhibition of binding: 5 μM oligonucleotide
[6] = molecular target: CD4/gp120 interaction (Human immunodeficiency virus type 1 group M subtype B, UniProt P03375); settings: concentrations 10,000-fold above its IC50; Callahan et al.; cited from earlier work
[7] = system: HIV-1IIIB; assay: Acute HIV infection assay (XTT, CEM cells); settings: Table 3; for IC50: inhibition of HIV
[8] = system: HSV-1 (KOS); assay: HSV-1 infection ELISA assay; format: cell-based, herpes simplex virus
[9] = molecular target: T1, CD4 (Homo sapiens, UniProt P01730); format: binding
[10] = molecular target: T2, human CD44 (Homo sapiens, UniProt P16070); assay: Immunofluorescent flow cytometry, anti-CD44 mAb; format: cell-based
T2 construct: endogenous in cells; host or cells: HeLa cells harboring an HIV-1 env gene
T2 sequence (P16070 21-361 isoform P16070-12 limits assumed): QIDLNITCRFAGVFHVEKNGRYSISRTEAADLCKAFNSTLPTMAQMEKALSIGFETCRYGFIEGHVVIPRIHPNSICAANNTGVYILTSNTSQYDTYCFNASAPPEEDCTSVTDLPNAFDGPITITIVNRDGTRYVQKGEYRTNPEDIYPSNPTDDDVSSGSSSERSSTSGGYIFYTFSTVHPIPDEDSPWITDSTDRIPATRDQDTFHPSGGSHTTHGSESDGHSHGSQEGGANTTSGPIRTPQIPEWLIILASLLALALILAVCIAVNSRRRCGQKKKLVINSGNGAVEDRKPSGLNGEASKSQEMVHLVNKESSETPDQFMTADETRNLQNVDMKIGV

[11] = molecular target: T1, CD4; assay: Immunofluorescent flow cytometry, anti-CD4 mAb on CEM-T4 cells; format: cell-based
[12] = system: chronically infected (H9 IIIB) cell models; assay: Chronically infected cell models; format: cell-based, human immunodeficiency virus; settings: data not shown
[13] = system: HIV; format: cell-based; settings: data not shown
[14] = molecular target: V3 loop region of gp120 (Human immunodeficiency virus type 1 group M subtype B, UniProt P03375)
[15] = molecular target: T3, human type II phospholipase A2 (Homo sapiens, UniProt P14555); assay: Phospholipase A2 assay, 3H-oleic acid labelled E. coli substrate; format: biochemical
T3 sequence (P14555 21-144): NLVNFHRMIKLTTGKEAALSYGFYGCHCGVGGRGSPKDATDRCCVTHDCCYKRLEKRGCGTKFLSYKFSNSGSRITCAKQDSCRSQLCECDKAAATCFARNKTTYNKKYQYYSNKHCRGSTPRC

[16] = system: human cytomegalovirus (HCMV); format: cell-based
[17] = system: HSV-1 (KOS); assay: HSV-1 virus yield assay; format: cell-based, herpes simplex virus; set-up: dose or concentration left out as unconfirmed; settings: compared with Acyclovir
[18] = molecular target: gp120 (Human immunodeficiency virus type 1 group M subtype B, UniProt P03375); settings: read-out: dissociation constant (Kd); immobilized gp120; FIG. 16
[19] = Table 1, 50% inhibition of HSV replication relative to control infected cells
[20] = Table 12, inosine-substituted oligonucleotides against HSV

Substance: 5677 (DNA dG*dG*dG*dG*dT*dT*dG*dG*dG*dG*dT*dT*dG*dG*dG*dG*dT*dT*dG*dG*dG*dG) [compound 5677]
- TI (TC50/IC50) [1]: 146

Substance: 5674 (DNA dT*dT*dG*dG*dG*dG*dT*dT*dG*dG*dG*dG) [compound 5674]
- TC50 [2]: >200 µM

Substance: TsTsGsGsGsGsTsT [TsTsGsGsGsGsTsT heat denatured]
- % tetramer [3]: 0%
- IC50 ([4]; Table 16, acute HIV assay): inactive
- inhibition of binding [5]: showed inhibition of binding

Substance: dextran sulfate
- effect on gp120/CD4 interaction [6]: does not prevent the gp120/CD4 interaction

Substance: 5667 (DNA TTGGGGTTGGGGTT; unmodified DNA) [compound 5667]
- TC50 [2]: 5.6 µM
- IC50 [7]: > 22000 nM

Substance: 5590 (GGGGTTGGGG; phosphodiester, further chemistry not given here) [compound 5590]
- EC50 [8, 19]: > 3000 nM
- TC50 [2]: 20 µM
- IC50 [7]: > 25000 nM

Substance: TsTsGsGsGsGsTsTsB
- % tetramer [3]: 85%
- Kd [9]: ~25000 nM
- IC50 ([4]; Table 16, acute HIV assay): 0.4 µM

Substance: TT GGGG TT [ISIS 5320]
- effect on binding of antibodies to human CD44 [10]: Neither oligonucleotide significantly decreased binding
- effect on binding of antibodies to CD4 [11]: Neither oligonucleotide significantly decreased binding
- effect on chronically infected cells [12]: had no effect
- production of intracellular PCR-amplifiable DNA [13]: inhibited production of intracellular PCR-amplifiable DNA
- IC50 ([4]; Table 15, μM of oligonucleotide strand to inhibit 50% of virus-induced cell killing, error ±0.1 μM): 0.3 µM
- IC50 ([4]; Table 16, acute HIV assay, listed as TsTsGsGsGsGsTsT): 0.3 µM
- antiviral activity after heat denaturation of the tetrameric complex ([4]; data not shown): loss of activity
- IC50 ([5]; read-out: concentration reducing virus production to 50% of control, tetramer form, infection after 48 hours, data not shown): ~400 nM
- effect on binding of antisera to gp120 [14]: interferes with binding of antisera directed against the V3 loop region of gp120

Substance: 5668 (DNA TTGGGGTTGGGG; unmodified DNA) [compound 5668]
- TC50 [2]: 5.2 µM
- IC50 [7]: > 21000 nM

Substance: 5652 (TTGGGGTTGGGGTTGGGGTT; phosphorothioate, further chemistry not given here) [compound 5652]
- TI (TC50/IC50) [7]: 227

Substance: 5544 (GGGTGGGTATAG; phosphorothioate, further chemistry not given here) [compound 5544]
- EC50 [8, 19]: > 3000 nM
- % Inhibition (1 μM) ([15]; Table 5, 1 μM, two separate experiments): 50%

Substance: 5367 (TTGGGGTTGGGGTTGGGGTTGGGGG; phosphodiester, further chemistry not given here) [compound 5367]
- EC50 [8, 19]: > 4000 nM
- IC50 [16]: > 2000 nM
- TC50 [2]: 52 µM
- TI (TC50/IC50) [7]: 400
- IC50 [7]: 90 nM and 130 nM

Substance: ToTsGoGsGoGsToT
- % tetramer [3]: 9%
- IC50 ([4]; Table 16, acute HIV assay): inactive

Substance: TsToGsGoGsGoTsT
- % tetramer [3]: 83%
- IC50 ([4]; Table 16, acute HIV assay): 5.3 µM

Substance: TGG GG [ISIS 5544]
- inhibition of enzyme activity ([15]; 1 μM): 50%
- inhibition of enzyme activity ([15]; 3 μM): complete inhibition
- % tetramer [3]: 57* %
- IC50 ([4]; Table 16, acute HIV assay): inactive

Substance: 5669 (DNA GGGGTTGGGGTTGGGG; unmodified DNA) [compound 5669]
- TI (TC50/IC50) [1]: 9
- TC50 [2]: 9.6 µM
- IC50 [7]: 1200 nM

Substance: 5653 (TTGGGGTTGGGGTTGGGG; phosphorothioate, further chemistry not given here) [compound 5653]
- TC50 [2]: 27 µM
- IC50 [7]: 190 nM

Substance: 5670 (DNA GGGGTTGGGGTTGGGGTTGGGG; unmodified DNA) [compound 5670]
- EC50 [8, 19]: > 3000 nM
- TC50 [2]: 15 µM

Substance: TGTGTGTG [ISIS 6071, reference compound]
- % tetramer [3]: 0%
- IC50 ([4]; Table 16, acute HIV assay): inactive
- inhibition of binding [5]: showed inhibition of binding

Substance: ToToGsGsGsGoToT
- % tetramer [3]: 72%
- IC50 ([4]; Table 16, acute HIV assay): inactive

Substance: TsTsGoGoGoGsTsT
- % tetramer [3]: 80%
- IC50 ([4]; Table 16, acute HIV assay): 5 µM

Substance: 4721 (CACGGGGTCG; phosphorothioate, further chemistry not given here) [compound 4721]
- TI (TC50/IC50) [1]: 546
- TC50 [2]: 142 µM

Substance: 5649 (TTGGGGTTGGGGTTGGGGTTGGGG; phosphodiester, further chemistry not given here) [compound 5649]
- EC50 [8, 19]: > 3000 nM
- TI (TC50/IC50) [1]: 300

Substance: 5296 (GTTGGAGACCGGGGTTGGNG; DNA, [I] at 19, backbone not given here) [compound 5296]
- EC50 [8, 20]: 800 nM

Substance: 4925 (GTTGGAGACCGGNGTTGGNG; DNA, [I] at 13, 19, backbone not given here) [compound 4925]
- EC50 [8, 20]: 1600 nM

Substance: 5651 (TTGGGGTTGGGGTTGGGGTTGGGG; phosphorothioate, further chemistry not given here) [compound 5651]
- TI (TC50/IC50) [1]: 175
- TC50 [2]: 19, 19 μM

Substance: 5309 (GTTGGAGACCGNGTTGGGG; inosine substitution, further chemistry not given here) [compound 5309]
- EC50 [8, 20]: > 3000 nM

Substance: TT GGGG TT GGGG TT GGGG TT GGGG (TTGGGGTTGGGGTTGGGGTTGGGG; chemistry not fully specified) [ISIS 5651]
- antiviral activity, virus yield [17]: greater antiviral activity than did Acyclovir

Substance: TT GGGG [ISIS 5739]
- % tetramer [3]: 40* %
- IC50 ([4]; Table 16, acute HIV assay): 13 µM

Substance: 5650 (TTGGGGTTGGGGTTGGGGTT; phosphodiester, further chemistry not given here) [compound 5650]
- EC50 [8, 19]: > 3000 nM
- TI (TC50/IC50) [1]: 12
- TC50 [2]: 7.6 µM
- IC50 [7]: 640 nM

Substance: α-TsTsGsGsGsGsTsT
- % tetramer [3]: 98%
- IC50 ([4]; Table 16, acute HIV assay): 0.5 µM

Substance: 5295 (GTTGGAGACCGGGNTTGGGG; DNA, [I] at 14, backbone not given here) [compound 5295]
- EC50 [8, 20]: > 3000 nM

Substance: GsGsGsGsT
- % tetramer [3]: 61* %
- IC50 ([4]; Table 16, acute HIV assay): 1.4 µM

Substance: α-ToToGoGoGoGoToT
- % tetramer [3]: 97%
- IC50 ([4]; Table 16, acute HIV assay): inactive

Substance: 5366 (TTGGGGTTGGGGTTGGGGTTGGGGG; phosphorothioate, further chemistry not given here) [compound 5366]
- TC50 [2]: 22 µM
- TI (TC50/IC50) [7]: 220

Substance: 5675 (DNA dT*dT*dG*dG*dG*dG*dT*dT*dG*dG*dG*dG*dT*dT) [compound 5675]
- TI (TC50/IC50) [1]: 36
- TC50 [2]: 14 µM

Substance: 5297 (CACGAAAGGCATGACCGNGGC; DNA, [I] at 18, backbone not given here) [compound 5297]
- EC50 [8, 20]: > 3000 nM

Substance: GG GG [ISIS 4803]
- % tetramer [3]: 29* %

Substance: T2A4T2-biotin
- Kd [18]: ~260000 nM

Substance: 5676 (DNA dG*dG*dG*dG*dT*dT*dG*dG*dG*dG*dT*dT*dG*dG*dG*dG) [compound 5676]
- TI (TC50/IC50) [1]: 114

Substance: 5666 (DNA TTGGGGTTGGGGTTGGGG; phosphodiester, further chemistry not given here) [compound 5666]
- TI (TC50/IC50) [1]: 100

Substance: GsGsGsGsTsT
- % tetramer [3]: 94* %
- IC50 ([4]; Table 16, acute HIV assay): 0.5 µM
